The structures appear in SMILES notation. Read-outs that look alike come from different tables or passages of the source.

Data set [1] concerns the target T1, human endoplasmic reticulum aminopeptidase 1 (rHsERAP1) (Homo sapiens, UniProt Q9NZ08).
T1 construct: made in house; host or cells: Hi5 insect cells (baculovirus produced in sf9)
Kind of data set: rHsERAP1 inhibition, L-AMC fluorigenic substrate. In kind it is biochemical. The note with it: 50 µM L-AMC. Here is the method:
(§1) The enzymatic activity of HsERAP1, HsERAP2 and HsIRAP was determined by following the time-dependent increase in fluorescence at 460 nm (excitation: 380 nm) of the fluorigenic substrates L-Leucine-7-amido-4-methyl coumarin (L-AMC; Sigma, Darmstatd, Germany) for HsERAP1 and HsIRAP and L-arginyl-7-amido-4-methyl coumarin (R-AMC; Sigma) for HsERAP2. […] The reaction was followed for 10 min at room temperature and the remaining enzymatic activity was calculated by measuring the slope of the time course.

The target in data set [2] is T2, P. falciparum rPfAM17 (Plasmodium falciparum, UniProt Q8IL11).
T2 construct: made in house; host or cells: Escherichia coli Rosetta 2 (DE3)
T2 sequence (Q8IL11 1-605): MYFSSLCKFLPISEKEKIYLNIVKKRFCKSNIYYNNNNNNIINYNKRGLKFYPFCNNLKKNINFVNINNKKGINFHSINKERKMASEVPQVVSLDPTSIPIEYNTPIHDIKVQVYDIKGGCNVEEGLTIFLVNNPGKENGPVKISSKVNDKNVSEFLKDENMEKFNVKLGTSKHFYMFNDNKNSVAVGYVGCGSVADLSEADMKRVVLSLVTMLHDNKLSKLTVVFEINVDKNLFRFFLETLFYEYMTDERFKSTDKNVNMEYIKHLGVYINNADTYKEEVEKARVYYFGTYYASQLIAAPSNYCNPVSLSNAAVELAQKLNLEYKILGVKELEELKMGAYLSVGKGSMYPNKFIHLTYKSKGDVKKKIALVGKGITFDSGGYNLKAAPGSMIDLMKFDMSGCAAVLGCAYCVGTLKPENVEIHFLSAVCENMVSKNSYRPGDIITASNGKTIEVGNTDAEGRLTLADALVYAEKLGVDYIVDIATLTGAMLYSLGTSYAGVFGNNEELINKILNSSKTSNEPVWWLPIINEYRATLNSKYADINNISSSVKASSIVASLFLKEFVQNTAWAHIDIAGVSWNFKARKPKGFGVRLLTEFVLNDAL
On the set-up: method as in PMID 28934959. As to conditions: ref 69; cited from earlier work.

For data set [3], the target named is pAPN from porcine kidney. The note with it: Dixon plots; cited from earlier work.
Data set [4] can be described thus: Octanol/water partition coefficient (logD7.4) by reversed-phase HPLC. The note with it: pH 7.4.
The target in data set [5] is human leukotriene A4 hydrolase (rHsLTA4H). On the set-up: method as in PMID 21843945. As to conditions: ref 58; cited from earlier work.
Data set [6] addresses T3, human endoplasmic reticulum aminopeptidase 2 (rHsERAP2) (Homo sapiens, UniProt Q6P179).
T3 construct: made in house; host or cells: Hi5 insect cells (baculovirus produced in sf9)
Put plainly: rHsERAP2 inhibition, R-AMC fluorigenic substrate. As to conditions: 50 µM R-AMC. In kind it is biochemical. The protocol:
as §1

Data set [7] addresses aminopeptidase from A. proteolytica (AAP). On the set-up: method as in PMID 21843945. The note with it: ref 58; cited from earlier work.
Data set [8] concerns the target human puromycine sensitive aminopeptidase (rHsPSA) (Homo sapiens, UniProt P55786). Kind of data set: rHsPSA inhibition, Leu-pNA substrate, Dixon method. In kind it is biochemical. As to conditions: triplicate, SD. Here is the method: Enzyme activity assays were carried out in 10 mM Tris-HCl buffer at pH 7.5 with 150 mM NaCl, enzyme, 100 µM substrate (Leu-pNA) in a 100 μL reaction at 37 °C. The absorbance was read at 405 nm. Concentrations ranging from 1 nM to 100 μM of inhibitors (dissolved in DMSO) were incubated with each of the enzymes ([…]) for 30 min at 37 °C in a 96 well plate. After addition of the substrate, immediate increase in absorption was measured. All inhibition assays were performed in triplicates and initial velocities were measured. Percentage inhibition and log values of inhibitor concentrations were plotted using SigmaPlot to determine IC50 values. Ki values were determined by the Dixon method. The assay consists of reaction buffer, enzyme and varied concentrations of Leu-pNA (25, 50, 100, 200 and 400 µM). […]. All the reactions were performed in triplicates, SD values were reported.

Data set [9] has as its target T4, P. falciparum rPfAM1 (Plasmodium falciparum, UniProt O96935).
T4 construct: made in house; host or cells: Escherichia coli Rosetta 2 (DE3)
T4 sequence (O96935 1-1085): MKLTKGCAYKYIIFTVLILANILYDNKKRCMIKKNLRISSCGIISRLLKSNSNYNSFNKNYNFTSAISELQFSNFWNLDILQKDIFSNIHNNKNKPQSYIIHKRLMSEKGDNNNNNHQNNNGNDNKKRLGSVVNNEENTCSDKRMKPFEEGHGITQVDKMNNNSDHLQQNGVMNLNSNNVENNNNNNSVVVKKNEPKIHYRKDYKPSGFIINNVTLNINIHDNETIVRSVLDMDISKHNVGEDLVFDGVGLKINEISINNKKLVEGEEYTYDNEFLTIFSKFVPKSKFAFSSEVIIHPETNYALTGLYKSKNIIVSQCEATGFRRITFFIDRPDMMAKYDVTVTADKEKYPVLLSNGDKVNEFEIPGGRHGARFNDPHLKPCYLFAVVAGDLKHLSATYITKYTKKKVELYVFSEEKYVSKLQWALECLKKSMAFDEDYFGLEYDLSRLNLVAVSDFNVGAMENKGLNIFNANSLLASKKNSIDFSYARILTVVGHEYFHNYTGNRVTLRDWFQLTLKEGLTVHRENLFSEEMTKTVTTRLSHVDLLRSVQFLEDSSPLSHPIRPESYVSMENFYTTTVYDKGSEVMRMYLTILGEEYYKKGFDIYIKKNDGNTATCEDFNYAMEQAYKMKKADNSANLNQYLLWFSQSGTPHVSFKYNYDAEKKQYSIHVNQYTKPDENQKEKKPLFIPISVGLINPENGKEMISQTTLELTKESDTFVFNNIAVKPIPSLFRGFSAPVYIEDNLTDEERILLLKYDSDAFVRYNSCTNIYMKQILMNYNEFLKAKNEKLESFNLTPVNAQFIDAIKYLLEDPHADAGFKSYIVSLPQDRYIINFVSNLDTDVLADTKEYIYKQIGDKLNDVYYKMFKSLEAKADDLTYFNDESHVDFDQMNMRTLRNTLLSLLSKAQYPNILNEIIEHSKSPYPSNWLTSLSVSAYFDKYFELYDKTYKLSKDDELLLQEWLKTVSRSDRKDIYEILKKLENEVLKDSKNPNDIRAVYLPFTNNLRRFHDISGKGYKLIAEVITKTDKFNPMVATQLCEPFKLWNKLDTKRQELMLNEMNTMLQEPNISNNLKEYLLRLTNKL
On the set-up: method as in PMID 28934959. As to conditions: read-out: Ki rPfAM1; cited from earlier work.

The target in data set [10] is E. coli rEcPepN (Escherichia coli, UniProt P04825). Put plainly: rEcPepN inhibition, Leu-pNA substrate, Dixon method. In kind it is biochemical. The protocol:
Enzyme activity assays were carried out in 10 mM Tris-HCl buffer at pH 7.5 with 150 mM NaCl, enzyme, 100 µM substrate (Leu-pNA) in a 100 μL reaction at 37 °C. The absorbance was read at 405 nm. Concentrations ranging from 1 nM to 100 μM of inhibitors (dissolved in DMSO) were incubated with each of the enzymes ([…]) for 30 min at 37 °C in a 96 well plate. After addition of the substrate, immediate increase in absorption was measured. All inhibition assays were performed in triplicates and initial velocities were measured. Percentage inhibition and log values of inhibitor concentrations were plotted using SigmaPlot to determine IC50 values. Ki values were determined by the Dixon method. The assay consists of reaction buffer, enzyme and varied concentrations of Leu-pNA (25, 50, 100, 200 and 400 µM). […] Data were plotted as 1/rate versus inhibitor concentration for each substrate concentration and a linear fit was calculated by non-linear regression using SigmaPlot12.5. All the reactions were performed in triplicates, SD values were reported.

For data set [11], the target named is mammalian aminopeptidase N (mAPN). The note with it: cited from earlier work.
In data set [12] the target is bimetallic aminopeptidase from A. proteolytica (AAP). On the set-up: method as in PMID 21292493. As to conditions: ref 42; cited from earlier work.
The target of data set [13] is human arginyl aminopeptidase B (HsAPB). As to conditions: cited from earlier work.
Data set [14] relates to E. coli (EcPepN) M1 aminopeptidase. As to conditions: ref 43; cited from earlier work.
The target of data set [15] is P. falciparum M17 aminopeptidase (PfAM17). The note with it: ref 45; cited from earlier work.
The target in data set [16] is mammalian cytosolic leucine aminopeptidase (mLAPc). The note with it: cited from earlier work.
Data set [17] addresses human puromycine sensitive aminopeptidase (HsPSA). As to conditions: ref 37; cited from earlier work.
Data set [18] addresses P. falciparum (PfAM1) M1 aminopeptidase. The note with it: ref 44; cited from earlier work.
The target of data set [19] is human endoplasmic reticulum aminopeptidase 1 (HsERAP1). As to conditions: ref 41; cited from earlier work.
Data set [20] concerns the target human Leucyl-cystinyl aminopeptidase (HsIRAP). As to conditions: ref 48; cited from earlier work.
The target of data set [21] is human aminopeptidase A (HsAPA). As to conditions: NI = no inhibition; cited from earlier work.
Data set [22] concerns the target human leukotriene A4 hydrolase (HsLTA4H). The note with it: ref 37; cited from earlier work.

T1 sequence (Q9NZ08 whole entry): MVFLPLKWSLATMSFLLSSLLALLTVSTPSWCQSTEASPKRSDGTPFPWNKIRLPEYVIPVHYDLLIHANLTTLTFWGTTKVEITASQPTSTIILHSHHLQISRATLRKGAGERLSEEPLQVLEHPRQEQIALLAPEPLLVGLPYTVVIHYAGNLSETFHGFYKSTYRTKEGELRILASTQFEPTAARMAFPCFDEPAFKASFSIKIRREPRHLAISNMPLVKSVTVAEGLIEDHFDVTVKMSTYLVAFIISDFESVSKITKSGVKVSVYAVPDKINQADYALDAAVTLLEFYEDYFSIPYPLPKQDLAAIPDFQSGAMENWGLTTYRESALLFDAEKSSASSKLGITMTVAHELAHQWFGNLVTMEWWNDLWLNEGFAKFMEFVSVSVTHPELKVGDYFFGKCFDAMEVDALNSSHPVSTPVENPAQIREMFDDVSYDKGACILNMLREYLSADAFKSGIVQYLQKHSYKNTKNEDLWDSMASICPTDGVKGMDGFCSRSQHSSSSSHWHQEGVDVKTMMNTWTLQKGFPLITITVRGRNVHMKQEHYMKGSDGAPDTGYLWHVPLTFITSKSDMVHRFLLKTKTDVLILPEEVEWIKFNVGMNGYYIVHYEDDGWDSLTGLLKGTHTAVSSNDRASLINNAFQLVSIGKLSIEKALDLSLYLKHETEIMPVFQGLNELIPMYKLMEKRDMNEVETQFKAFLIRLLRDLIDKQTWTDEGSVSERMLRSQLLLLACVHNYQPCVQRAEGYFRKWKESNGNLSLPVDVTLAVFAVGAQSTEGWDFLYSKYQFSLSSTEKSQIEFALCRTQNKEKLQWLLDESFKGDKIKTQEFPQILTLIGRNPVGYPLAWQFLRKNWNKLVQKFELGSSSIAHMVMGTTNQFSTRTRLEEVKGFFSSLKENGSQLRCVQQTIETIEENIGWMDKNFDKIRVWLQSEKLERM
T3 sequence (Q6P179 whole entry): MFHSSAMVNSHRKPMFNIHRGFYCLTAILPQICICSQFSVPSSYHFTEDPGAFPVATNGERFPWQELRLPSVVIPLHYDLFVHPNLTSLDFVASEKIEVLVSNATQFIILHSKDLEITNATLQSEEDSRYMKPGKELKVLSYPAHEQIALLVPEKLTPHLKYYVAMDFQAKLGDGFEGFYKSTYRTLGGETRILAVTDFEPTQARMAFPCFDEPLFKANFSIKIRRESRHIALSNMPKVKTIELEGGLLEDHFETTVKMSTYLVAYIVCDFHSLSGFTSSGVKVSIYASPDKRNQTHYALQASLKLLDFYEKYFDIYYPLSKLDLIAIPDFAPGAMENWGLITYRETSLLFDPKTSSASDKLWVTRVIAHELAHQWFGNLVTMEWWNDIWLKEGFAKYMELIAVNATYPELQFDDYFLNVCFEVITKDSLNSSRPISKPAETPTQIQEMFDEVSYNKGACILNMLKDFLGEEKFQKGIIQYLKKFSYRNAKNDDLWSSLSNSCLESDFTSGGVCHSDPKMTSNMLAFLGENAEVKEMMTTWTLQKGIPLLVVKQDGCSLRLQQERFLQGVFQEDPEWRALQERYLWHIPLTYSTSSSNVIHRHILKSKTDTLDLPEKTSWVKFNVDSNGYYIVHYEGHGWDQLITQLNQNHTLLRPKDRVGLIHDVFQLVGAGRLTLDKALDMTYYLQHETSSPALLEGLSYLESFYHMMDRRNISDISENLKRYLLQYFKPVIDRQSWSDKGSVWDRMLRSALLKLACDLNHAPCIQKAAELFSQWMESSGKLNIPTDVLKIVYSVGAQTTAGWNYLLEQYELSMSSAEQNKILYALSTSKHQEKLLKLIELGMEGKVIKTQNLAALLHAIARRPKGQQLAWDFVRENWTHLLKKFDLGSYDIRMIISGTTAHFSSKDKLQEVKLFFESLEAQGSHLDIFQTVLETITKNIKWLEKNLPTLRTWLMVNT
E. coli rEcPepN, sequence (P04825 whole entry): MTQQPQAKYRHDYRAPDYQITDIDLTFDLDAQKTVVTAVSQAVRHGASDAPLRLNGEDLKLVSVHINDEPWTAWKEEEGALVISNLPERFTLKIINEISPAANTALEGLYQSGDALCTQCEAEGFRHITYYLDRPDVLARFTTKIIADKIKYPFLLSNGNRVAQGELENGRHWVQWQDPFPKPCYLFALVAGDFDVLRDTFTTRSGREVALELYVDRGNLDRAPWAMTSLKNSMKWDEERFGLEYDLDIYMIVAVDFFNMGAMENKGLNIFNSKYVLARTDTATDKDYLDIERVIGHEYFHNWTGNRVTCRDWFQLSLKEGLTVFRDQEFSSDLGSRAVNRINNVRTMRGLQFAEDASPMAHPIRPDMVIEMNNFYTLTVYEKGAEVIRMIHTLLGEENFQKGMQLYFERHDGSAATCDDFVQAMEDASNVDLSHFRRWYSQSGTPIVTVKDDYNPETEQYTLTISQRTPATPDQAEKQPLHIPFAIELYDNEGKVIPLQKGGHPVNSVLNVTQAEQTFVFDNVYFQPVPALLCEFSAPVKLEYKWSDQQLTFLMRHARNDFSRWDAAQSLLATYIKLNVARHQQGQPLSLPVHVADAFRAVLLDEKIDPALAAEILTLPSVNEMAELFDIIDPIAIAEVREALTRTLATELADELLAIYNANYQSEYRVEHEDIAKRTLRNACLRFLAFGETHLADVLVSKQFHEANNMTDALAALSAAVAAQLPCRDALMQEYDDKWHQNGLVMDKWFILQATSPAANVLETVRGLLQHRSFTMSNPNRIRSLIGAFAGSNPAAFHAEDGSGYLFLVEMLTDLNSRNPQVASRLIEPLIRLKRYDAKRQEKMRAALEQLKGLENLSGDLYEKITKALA
human puromycine sensitive aminopeptidase (rHsPSA), sequence (P55786 whole entry): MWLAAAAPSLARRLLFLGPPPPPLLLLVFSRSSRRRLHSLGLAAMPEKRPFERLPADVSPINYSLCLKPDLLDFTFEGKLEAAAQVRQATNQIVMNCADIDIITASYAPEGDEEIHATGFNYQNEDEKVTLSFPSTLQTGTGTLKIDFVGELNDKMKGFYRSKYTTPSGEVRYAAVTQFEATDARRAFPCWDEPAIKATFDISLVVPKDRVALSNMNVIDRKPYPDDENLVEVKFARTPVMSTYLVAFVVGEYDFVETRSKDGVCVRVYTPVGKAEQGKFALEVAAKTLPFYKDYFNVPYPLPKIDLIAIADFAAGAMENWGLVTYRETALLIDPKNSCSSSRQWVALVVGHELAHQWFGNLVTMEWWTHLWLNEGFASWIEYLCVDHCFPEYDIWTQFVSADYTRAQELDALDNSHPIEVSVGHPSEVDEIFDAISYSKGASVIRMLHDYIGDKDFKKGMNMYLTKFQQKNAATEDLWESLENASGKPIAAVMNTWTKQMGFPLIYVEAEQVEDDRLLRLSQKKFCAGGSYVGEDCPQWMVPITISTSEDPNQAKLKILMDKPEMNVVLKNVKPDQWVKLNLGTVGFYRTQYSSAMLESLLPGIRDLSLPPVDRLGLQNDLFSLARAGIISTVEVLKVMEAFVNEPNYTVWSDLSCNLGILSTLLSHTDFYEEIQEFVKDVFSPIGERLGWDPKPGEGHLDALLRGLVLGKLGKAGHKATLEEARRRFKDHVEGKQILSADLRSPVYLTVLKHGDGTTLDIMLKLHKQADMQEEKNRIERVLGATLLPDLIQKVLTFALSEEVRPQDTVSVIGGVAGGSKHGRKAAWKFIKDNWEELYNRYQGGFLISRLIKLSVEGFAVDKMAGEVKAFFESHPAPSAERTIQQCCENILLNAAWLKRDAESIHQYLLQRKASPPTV

Take `NC1CCc2cccc(-c3ccccc3)c2CC1=O` (centres unmarked) [21c]: the half-maximal inhibitory concentration (IC50) – broadly, the point on the concentration scale where inhibition reaches its midpoint – in [1] is 63 ± 3 µM; in data set [6], 18 ± 1.3 µM. The inhibition constant Ki (commonly a measure of affinity in units of concentration, obtained from inhibition or displacement) is over 100 µM in data set [2]; 0.007 µM in data set [3]; 19 µM in data set [5]; 28 µM in data set [7]; 0.05 ± 0.004 µM in data set [8]; 0.05 ± 0.005 µM in data set [9]. The Ki in [10] worked out at 0.16 ± 0.012 µM. Also, the chromatographic logD (commonly lipophilicity estimated from chromatographic retention) in data set [4] amounted to 2.12.
As for `CC(C)C[C@H](NC(=O)[C@@H](O)[C@H](N)Cc1ccccc1)C(=O)O` [compound 1, Bestatin], the IC50 in data set [11] (ref 37) was 0.3 µM; in data set [14], 7.3 µM; in data set [17] it was 0.35 µM. In addition, the inhibitory constant (Ki) in [11] (ref 40) was 89 µM; in data set [12] it was 0.0016 µM; in data set [13] (ref 38), 6 µM; in data set [13] (ref 39), 0.014 µM; in data set [15], 0.025 µM; in data set [16] (ref 38), 0.0006 µM. Moreover, the Ki in [16] (ref 39) was 0.02 µM; in data set [18], 0.19 µM; in data set [19] it was 11.2 µM.
In the case of `C#CC[C@H](CP(=O)(O)[C@@H](N)CCc1ccccc1)C(=O)N[C@@H](Cc1ccccc1)C(N)=O` [compound 3], the IC50 in data set [20] was 0.002 µM.
For `NC1Cc2ccc3ccccc3c2CC1=O` (centres unmarked) [compound 5], the inhibition constant Ki is over 1000 µM in [13] (ref 38), 3 µM in data set [16] (ref 38) and over 1000 µM in data set [21].
For `CC(C)C[C@@H](C(=O)N[C@H](C(=O)O)c1ccccc1)[C@H](O)C(=O)NO` [compound 8], the IC50 is 0.008 µM in data set [22], 0.03 µM in data set [16] (ref 37) and 0.85 µM in [17].

Source of the values: publication PMC6222927, “Aminobenzosuberone Scaffold as a Modular Chemical Tool for the Inhibition of Therapeutically Relevant M1 Aminopeptidases” (Molecules : A Journal of Synthetic Chemistry and Natural …, 2018).
